We go through two compounds from paper PMC13170702 (Nuclear medicine and biology, 2025).

In data set [1] the test system is Sprague-Dawley rats. Nature of the data set: GLP 14-day toxicological study. Format: in vivo. The conditions noted are these: non-radioactive compound given on two consecutive days.
Data set [2] deals with 70 other CNS binding sites. The conditions noted are these: at 1 μM; cited from earlier work.

With `COC(=O)[C@@H](N)CC(=O)Nc1ccc2c(c1)Cc1cc(F)ccc1-2` [RP-115], in data set [1], the adverse effects entry is listed as “no overt adverse effects”.
Regarding `NC(CC(=O)Nc1ccc2c(c1)Cc1cc(F)ccc1-2)C(=O)O` (centres unmarked), in data set [2], the “binding at 70 other CNS binding sites” value is “no binding”.
